Measurements as given in patent US20070275936A1, “Formulations and Treatment Methods” (priority 1998, published 2007).

Key:
[1] = test system: Chloroquine sensitive T996/86 P. falciparum; experiment: In vitro antimalarial testing (schizont inhibition / 3H-hypoxanthine incorporation); assay type: cell-based; conditions: Plasmodium falciparum, T996
Experimental: For in vitro antimalarial testing, micro-titer plates were used. The concentration of drugs were prepared as pMol/well according to WHO standard procedures (WHO, 1990). The test compound was dissolved in 15% DMSO in sterile RPMI-1640. Both chloroquine sensitive (e.g., WS/97) and resistant (e.g., MN/97) isolates of Plasmodium species are used.
A schizont inhibition assay was performed as follows. The micro-titer plates were predosed with various concentrations of the test compound. 50 μL of parasitised erythrocyte suspension in RPMI-1640 (0.2 mL erythrocyte+0.3 mL serum+4-5 ml RPMI-1640) were dispensed in microtiter wells that contained various concentrations of drug. Triplicate readings were made for each concentration.
A ^3H-hypoxanthine incorporation assay was performed as follows. The testing was carried out according to the procedure of Desjardins et al. 1979. After 30 hr culture at 37 degrees C., the same microtiter plates from schizont inhibition assays with another triplicate wells were pulsed with ^3H-hypoxanthine for overnight. The cell suspensions were washed twice on millipore glass fiber filter with Millipore filter apparatus. The filter discs were counted for DPM by a Beckman LS6000 β-scintillation counter. The activity of the drug was measured by plotting DPM against concentration of drug.

P. berghei HP15 ANKA = experiment: Four-day in vivo suppressive test in TO mice; set-up: species or system Plasmodium berghei; conditions: 100 mg/kg × 4 days i.p., day 5 blood films, 5 equals control
Experimental: The 4-day suppressive test has been widely used and it can be performed within a 1 week period. The test consists of the inoculation of parasitised erythrocytes on the first day of the experiment (D0), followed by an injection of the test compound, which is also administered on the 2nd, 3rd and 4th days of the protocol. On the 5th day, blood films are taken and antimalarial activity is assessed either by calculating parasitemia, or by scoring parasite numbers on a predetermined scale (i.e., 1-5).
The protocol is summarized as follows. Five female TO mice were used per test group. P. berghei HP15 ANKA parasites were collected by cardiac puncture using a heparinised syringe from a donor mouse having a 30+% parasitaemia. The blood was diluted with diluting agent (50% HIFCS+50% sterile PBS) to a final concentration of 1% parasitaemia or 1×10^7 infected erythrocytes per 0.2 mL of the infecting suspension. […] The steroid formulations were administered intraperitoneally 2 hours after parasite inoculation. The compounds were administered once a day starting on Do, and continued on the following three days. Blood films were made from tail blood on the day after the last dosing of compound and the blood was fixed with 100% methanol and stained with 10% Giemsa. Parasitaemias were scored on a scale of 0-5, where 5 is equal to the control.
An inoculum of 1% parasitaemia […], 0.2 mL per mouse (female strain TO mice), was delivered by intravenous injection. Drug administration commenced 2 hours after inoculation on Day 1 and continued for 3 days.

Sprague Dawley rats = experiment: TNBS induced distal colitis in rats; assay type: in vivo; conditions: day 14
Experimental: In another protocol formula 1 compounds were used in a similar animal model. Groups of 10 male Sprague Dawley rats (250-300 grams) were fasted for 24 hours before 2,4,6-trinitrobenzene sulfonic acid (TNBS) or saline challenge. This model presents a severe challenge to the animal's immune system. On Day 0, the rats were lightly anesthetized and a catheter inserted rectally into the colon such that the tip was 8 cm proximal to the anus. Distal colitis was induced by intra-colonic instillation of 0.5 mL of an ethanolic solution of TNBS (60 mg/mL ethanol 50% in water). The test substance, 7-oxodehydroepiandrosterone 20 mg/mL in vehicle or vehicle control was administered by subcutaneous injection (0.1 mL/injection) once a day for 6 days, the first dose being given 30 minutes after TNBS challenge. Sulfasalazine (30 mg/mL in 2% Tween 80 in distilled water) or vehicle control was administered orally (PO) once a day (10 mL/kg/day) for 7 days, the first two doses beginning 24 hours and 2 hours before […] challenge. Signs of diarrhea were recorded daily by examining the anal area. Animals were fasted for 24 hours prior to sacrifice on day 14 and the colon was removed and weighed. After gross observations of colonic tissues, 3 samples were taken from regions approximately 1, 3, and 8 cm proximal to the anus. If gross ulcers or inflammation were present, at least one sample was taken from the affected region. Before removal of the colon, signs of adhesion between the colon and other organs were recorded. […] Body weight, colon-to-body-weight ratio, and damage scores were assessed. Visible damage was scored on a 1-5 scale as follows: 0=No damage; 1=Localized hyperemia but no ulcers; 2=linear ulcers with no significant inflammation; 3=Linear ulcers with inflammation at one site; 4=Two or more sites of ulceration and/or inflammation; 5=Two or more major sites of ulceration and inflammation or one major site of ulceration and inflammation extending more than 1 cm along the length of the colon. […]

## C[C@]12CC[C@H](O)CC1=CC[C@@H]1[C@@H]2CC[C@]2(C)C(=O)CC[C@@H]12 [DHEA, dehydroepiandrosterone, reference compound]
[1]
  IC50: 19 µM
  inhibition at 0.938 µM: 37.2%
  inhibition at 1.875 µM: 23.2%
  inhibition at 3.25 µM: 37.2%
  inhibition at 7.5 µM: 38.3%
  inhibition at 15 µM: 44%
  inhibition at 30 µM: 65.6%
P. berghei HP15 ANKA
  Parasitaemia Score (0-5): 1
Sprague Dawley rats
  histopathology: inflammation / lesion frequency and severity versus controls: appeared to be similar

## C[C@]12CC[C@H](O)C[C@@H]1CC[C@@H]1[C@@H]2CC[C@]2(C)C(=O)[C@H](Br)C[C@@H]12 [BrEA, 16α-bromo-3β-hydroxy-5α-androstane-17-one]
[1]
  IC50: 7.5 µM
  inhibition at 0.938 µM: 31.8%
  inhibition at 1.875 µM: 40.9%
  inhibition at 3.25 µM: 43.7%
  inhibition at 7.5 µM: 50%
  inhibition at 15 µM: 60.1%
  inhibition at 30 µM: 98%
P. berghei HP15 ANKA
  Parasitaemia Score (0-5): 1
Sprague Dawley rats
  histopathology: inflammation / lesion frequency and severity versus controls: appeared to be similar
